Assay results taken from US9062289B2, “Differentiation of primate pluripotent stem cells to cardiomyocyte-lineage cells” (Asterias Biotherapeutics, Inc., priority 2005, dated 2015).

Tested on: primate pluripotent stem cell-derived cardiomyocytes
Assay: Contractile activity of primate pluripotent stem cell-derived cardiomyocytes
Format: cell-based
Settings: spontaneous periodic contractions in culture
Description: Under appropriate circumstances, primate pluripotent stem cell-derived cardiomyocytes often show spontaneous periodic contractile activity. This means that when they are cultured in a suitable tissue culture environment with an appropriate Ca^++ concentration and electrolyte balance, the cells can be observed to contract across one axis of the cell, and then release from contraction, without having to add any additional components to the culture medium. The contractions are periodic, which means that they repeat on a regular or irregular basis, at a frequency between ˜6 and 200 contractions per minute, and often between ˜20 and ˜90 contractions per minute in normal buffer (FIG. 2). Individual cells may show spontaneous periodic contractile activity on their own, or they may show spontaneous periodic contractile activity in concert with neighboring cells in a tissue, cell aggregate, or cultured cell mass.
The contractile activity of the cells can be characterized according to the influence of culture conditions on the nature and frequency of contractions. Compounds that reduce available Ca^++ concentration or otherwise interfere with transmembrane transport of Ca^++ often affect contractile activity. […] Further characterization of functional properties of the cell can involve characterizing channels for Na^+, K^+, and Ca^++. Electrophysiology can be studied by patch clamp analysis for cardiomyocyte like action potentials. See Igelmund et al., Pflugers Arch. 437:669, 1999; Wobus et al., Ann. N.Y. Acad. Sci. 27:752, 1995; and Doevendans et al., J. Mol. Cell Cardiol. 32:839, 2000.

SMILES | contractile activity | chronotropic effect
COc1ccc([C@@H]2Sc3ccccc3N(CCN(C)C)C(=O)[C@@H]2OC(C)=O)cc1 [diltiazem] | inhibits contractile activity in a dose-dependent manner | 
CC(C)NCC(O)c1ccc(O)c(O)c1 (stereo not drawn) [isoprenaline] |  | positive chronotropic effect
CNC[C@H](O)c1cccc(O)c1 [phenylephrine] |  | positive chronotropic effect
